Results on four compounds are retold here after patent US20040175368A1 (Wisconsin Alumni Research Foundation, priority 2001, published 2004).

Data set [1] has as its system L1210 cells. Briefly: Uptake of dye by L1210 cells. The data set is classed as cell-based, murine. To be noted: for Dye Uptake by L1210 Cells: 1 hour at 37° C. in the dark, 12% FBS. On the procedure: L1210 cells were suspended at a concentration of 1.0×10^6 cells/mL in HEPES-buffered (10 mM, pH 7.4) alpha-medium supplemented with FBS (12%), and the TAM^+dyes were added from 1.0×10^−4M stock solutions in 50% ethanol to final concentrations of […]. The cells were subsequently incubated in the dark for 1 hour at 37° C., pelleted, washed with dye-free medium, and extracted with ethanol (1 mL per […]). The dye content of each extract was determined spectrophotometrically using calibration curves assembled using suitable dilutions of authentic dye in ethanol extracts of cells that had been incubated in dye-free medium.

Data set [2] deals with RBL cells. Briefly: Two-photon laser scanning microscopy of intracellular dye distribution. Particulars: 0.2 μM dye; for intracellular distribution of dye fluorescence: 10 minutes incubation. Format: cell-based, rat. On the procedure:
RBL cells were incubated in the dark at a concentration of 1.1×10^5 cells/mL for periods ranging from 1 minute to 1 hour with fresh growth media containing 0.2 μM CV^+or Ev^+and subsequently incubated for 30 minutes in the dark with fresh growth media containing 0.05 μM Rh123; After a final cycle of washing and incubation for 15 minutes in fresh growth media, the media were replaced by modified Tyrode's solution containing 5 mM glucose and bovine serum albumin, and the cells were subjected to two-photon imaging. The examination of TAM^+accumulation into mitochondria was carried out through the comparison of the spatial distribution of the fluorescence of these dyes in the cellular environment with that of Rh123 (a classical mitochondrial marker^1,3) and the endogenous NAD(P)H. Fluorescence distributions within living RBL cells were obtained with a laser scanning multiphoton microscope (Bio-Rad MP1024). […] Three external detectors located in the Fourier plane of the microscope and equipped with appropriate sets of longpass dichroic and bandpass filters (from Chroma) were used for the simultaneous detection of two-photon excited fluorescence of NAD(P)H (400-500 nm), Rh123 (520-550 nm), and CV^+or EV^+(600-660 nm). To obtain sufficient fluorescence from CV^+,EV^+, and cellular NAD(P)H autofluorescence (all inefficient fluorophores), average excitation powers of approximately 18 mW were required. […]
Two-photon laser scanning microscopy^22,28 was used to obtain information on intracellular distribution and mitochondrial accumulation of CV^+and EV^+in RBL cells. […] Simultaneous two-photon images of NAD(P)H, Rh123, and TAM^+fluorescence were obtained by exciting RBL cells at 750 nm with a Ti:Sapphire laser (75 fs, 80 MHz, 18 mW) as the excitation source. No morphologic alterations or induction of fluorescence attributed to cellular photodamage was observed during the brief imaging period (approximately 3 seconds), and the bleaching of the three fluorophores was also negligible during this period. […]

Data set [3] concerns murine CFU-GM cells. The data set can be described thus: Dye-sensitized photoinactivation of normal hematopoietic CFU-GM cells, in vitro clonal assay. Format: cell-based. To be noted: 1.0×10^−6 M dye, 12% FBS, light up to 90 min (FIG. 3 lower panel).
The nature of data set [4]: Photobleaching quantum efficiency of TAM+ dyes noncovalently bound to BSA (532-nm laser photolysis). Format: physicochemical. On the procedure:
Spectrophotometric studies were performed with a Shimadzu UV-2101PC spectrophotometer. 1-Octanol/water partition coefficients^18 (P), were determined at 25° C. using equal volumes of water and 1-octanol. Typically, five distinct solutions of each dye in the concentration range between 1 μM and 10 μM were prepared in deionized water and subsequently equilibrated with 1-octanol. After the equilibrium was reached, the final dye concentrations in the aqueous and/or organic phases were determined by absorption spectroscopy. For the measurement of photobleaching quantum efficiencies, the samples were placed in standard 10-mm (optical path) quartz cells at a distance of approximately 10 cm from the light source and photolyzed using the 532-nm line of an Nd:YAG laser model 7010 from Continuum operating at a repetition rate of 10 Hz. The defocused laser beam (circular profile with a diameter of about 5 mm) was directed to the center of the quartz cell. The absolute photolysis energy (or the number of 532-nm photons per laser pulse) was kept constant over the course of any specific experiment. The temperature-controlled cell holder allowed continuous magnetic stirring of the samples during photolysis. The photobleaching quantum efficiencies were based on the photobleaching efficiency of a classical chemical actinometer, potassium ferrioxalate, ^19,20 and determined considering only the first 5 to 10% decrease in dye concentration. The photolysis energy was adjusted to appropriate levels with the use of a calibrated solid-state joulemeter model PM30VI from Molectron.
To explore how the photoreactivity of the TAM^+dyes in complex biologic environments correlates with the observed phototoxic effects toward tumor and normal cells, the photo-bleaching efficiency of TAM^+dyes noncovalently bound to a model biologic host (bovine serum albumin, BSA) was measured. For the case of CFU-GM cells, the efficacy of photoinduced cell destruction mediated by TAM^+dyes precisely paralleled the photochemical reactivity of these photosensitizers. Both, phototoxicity (FIG. 3, lower panel) and photoreactivity (Table 1) followed the decreasing order EV^+>VPBBO^+>CV^+>VBR^+.

`CCN(CC)c1ccc(C(=C2C=CC(=[N+](CC)CC)C=C2)c2ccc(N(CC)CC)cc2)cc1` [EV^+, ethyl violet]: the Dye Uptake by L1210 Cells in data set [1] was 1.76e+08 molecules/cell. Moreover, the “intracellular distribution of dye fluorescence” value in data set [2] is “also accumulates into cell mitochondria”. In addition, the “phototoxicity toward normal hematopoietic CFU-GM cells (in words)” value in data set [3] was “phototoxic toward both cell lines”.
In the case of `CN(C)c1ccc(C(=C2C=CC(=[N+](C)C)C=C2)c2ccc(N(C)C)cc2)cc1` [CV^+, crystal violet], the Dye Uptake by L1210 Cells in data set [1] is 2.14e+08 molecules/cell. Also, in data set [1] (among the TAM+ dyes tested), the “relative efficiency of uptake by L1210 cells (in words)” value is “most efficiently taken up by L1210 cells”. In addition, the “quantum efficiency of photobleaching, nitrogen-purged relative to air-equilibrated samples” value in data set [4] (BSA-bound) was “twofold higher”. In addition, the “photobleaching efficiency of dimer relative to monomer” value in data set [4] (BSA-bound, air-equilibrated) is recorded as “eightfold higher”. The “photobleaching efficiency of BSA-bound dimer” value in data set [4] (air-equilibrated samples, dimer) is on record as 1.1×10^−4. Besides, the “photobleaching efficiency of BSA-bound monomer” value in data set [4] (air-equilibrated samples, monomer) is listed as 1.3×10^−5. For the same compound, the “intracellular distribution of dye fluorescence” value in data set [2] was “consistent with mitochondrial localization”. For the same compound, in data set [2] (1 hour incubation, then 0.05 μM Rh123), the “effect on mitochondria after prolonged incubation” value was “mitochondrial inner membrane potential has been reduced”. Further, in data set [3], the “phototoxicity toward normal hematopoietic CFU-GM cells (in words)” value is “comparatively small toxic effects”.
`CCN=C1C=CC(=C(c2ccc(N(C)C)cc2)c2ccc(N(C)C)cc2)c2ccccc21.Cl` [VBR^+, victoria blue R] returned a Dye Uptake by L1210 Cells in data set [1] of 8.8e+07 molecules/cell. In addition, the “phototoxicity toward normal hematopoietic CFU-GM cells (in words)” value in data set [3] is “lowest efficacy”.
Turning to `CCN=C1C=CC(=C(c2ccc(N(CC)CC)cc2)c2ccc(N(CC)CC)cc2)c2ccccc21.Cl` [VPBBO^+, victoria pure blue BO], the Dye Uptake by L1210 Cells in data set [1] is 1.16e+08 molecules/cell. Further, the results for the “phototoxicity toward normal hematopoietic CFU-GM cells (in words)” value in data set [3] and in data set [3] (listed as VPBBO+) were “considerably more efficient in inactivating normal hematopoietic cells” and “intermediate efficacy”, respectively.
